Data taken from patent US11938138B2, “Methods for improved treatment of cancer” (Washington University, priority 2020, dated 2024).
Like-named read-outs stand apart in the source and are kept apart here.

Tests used:
K562 cells [1] = test: Cell cycle perturbation of K562 cells (DNA content, CD24, annexin V/PI); format: cell-based, human; settings: for G2 arrest / cells in G1 phase / G1 arrest: 36 hours of treatment; for G2 arrest: one-way ANOVA p<0.01; for cells in G1 phase / G1 arrest: CVT-313 2 μM (p<0.05), lovastatin 12 μM (p<0.01), FIG. 14G
Protocol: CD24 surface protein was quantified using monoclonal human antibodies. Cells were spun down at 300 g for 3 minutes and washed twice with 1 mL of Cell Staining Buffer. The cell pellet was then resuspended in 50 μl of Cell Staining Buffer containing 0.2 μg of either CD24-APC or CD24-BV421. The tube was rotated at 4° C. in the dark for 30 minutes. After, cells were washed twice (as before) and finally resuspended in 200 μl of Cell Staining Buffer. Cells were excited with 450/45 and 660/20 lasers (wavelength/filter bandwidth, both in nm). For concomitant analysis of DNA content, we used CD24-APC. Cells were incubated with 10 μg/ml Hoechst 33342 in 5 mL of growth medium for 30 minutes prior to the staining protocol. For simultaneous assessment of apoptosis, cells were stained with CD24-BV421. After the final wash, instead of resuspending in 200 μl of Cell Staining Buffer, cells were washed twice with Annexin V Staining Buffer. Cells were then incubated in 50 μl Annexin V Staining Buffer containing 0.2 μg Annexin V-FITC and 100 μg/ml propidium iodide (PI). The reaction was incubated for 15 minutes at room temperature in the dark. Afterward, we added 150 μl of Annexin V Staining Buffer and proceeded to flow cytometry. All samples were measured on a Beckman-Coulter CytoFLEX S flow cytometer. Cells were excited with 450/45, 525/40, and 610/20 lasers. We collected 10,000 events per sample. The resulting data were processed with FlowJo Software for Mac Version 10.
We perturbed the cell cycle with lovastatin and nocodazole, two drugs classically used to synchronize cells in culture (Jackman and O'Connor, 2001), as well as the cyclin-dependent kinase inhibitors CVT-313 (Brooks et al., 1997) and RO-3306 (Vassilev et al., 2006). All drugs were dissolved in DMSO except nocodazole, which was dissolved in ethanol. […] Media was refreshed every 48 hours. After 36 hours of treatment, we stained for CD24 levels and nuclear DNA content. We gated for live, single cells using the forward scatter (FSC) and side scatter channels (SSC). Univariate cell cycle analysis was performed with FlowJo. We confirmed that all drugs perturbed cell cycle by altering the proportions of cells in either G1 or G2/M phase (FIG. 14G). […] Cultures remained under drug treatment until five days had elapsed, at which point we measured CD24 levels and stained for apoptosis (FIG. 14H). As before, we set gates to exclude debris to quantitate annexin V and PI, and measured CD24 in live cells gated on FSC and SSC. The G2 inhibitors, in particular, had very few cells in the FSC/SSC gate (typically below 5%).
For the analysis of annexin V levels in either JQ1- or DMSO-treated CD24^high and CD24^low cells, we used a three-way ANOVA with treatment, cell state, and day as independent variables. […] Multiple hypothesis correction was performed using Tukey's honestly significant difference. For the cell cycle inhibitor experiment, data were analyzed using a one-way ANOVA with Dunnett's post hoc test using either DMSO or EtOH (for RO-3306) as controls.

K562 cells [2] = settings: Litzenburger et al., 2017; cited from earlier work
[3] = system: Relapsed/refractory lymphoma or multiple myeloma; settings: cited from earlier work
[4] = system: Relapsed/refractory leukemia; settings: cited from earlier work
NMC = settings: cited from earlier work; for toxicities of interest: 4 patients (case series)
NMC, CRPC, NSCLC = settings: cited from earlier work
Acute leukemia, MDS = settings: cited from earlier work; for DLTs: G3
[5] = system: Hematologic and solid malignancies; 17 with NMC; settings: cited from earlier work
[6] = system: Relapsed/refractory lymphoma; settings: cited from earlier work
BRD4 = BRD4 CRISPRi of K562 cells; format: cell-based, human
Source text: For CRISPRi, we first made lentivirus expressing dCas9-KRAB (Fulco et al., 2016; Xie et al., 2017) from Addgene plasmid #89567, a gift from Gary Hon, packaged in HEK293T cells along with pMD2.G (Addgene plasmid #12259) and psPAX2 (Addgene plasmid #12260), both gifts from Didier Trono. We cloned a BRD4 guide RNA, selected from the Dolcetto collection (Sanson et al., 2018), into the sgOpti plasmid (Addgene plasmid #85681, a gift from Eric Lander & David Sabatini) using Golden Gate assembly with Esp3I. We used an in-house pipeline to design a non-targeting gRNA sequence, which was cloned into CROP-seq-opti (Lalli et al., 2019). Plasmids were transfected into HEK293T cells using Lipofectamine 2000. Media was collected after 24 and 48 hours, and subsequently concentrated using Lenti-X Concentrator. Viral titers were functionally assed on HEK293T cells using the appropriate antibiotic (blasticidin or puromycin).
Next, we generated a polyclonal pool of dCas9-KRAB-expressing K562 cells. We seeded each well of a 6-well plate with 200,000 cells each containing 2 mL of growth media supplemented with 4 μg/ml polybrene and 1,000,000 infectious lentiviral particles for an estimated multiplicity of infection (MOI) of 5. Plates were centrifuged at 2,000 g for 30 minutes and returned to the incubator. After 48 hours, cells were split to mid-log phase concentration (˜400,000 cells/nil) and selected on blasticidin (10 μg/ml) for 48 hours. We made frozen stocks from these cells.
For the knockdown experiments, cells were thawed and allowed to recover for 4 days. We confirmed that the proportions of CD24^high/CD24^low was approximately equal at this point. We then seeded 200,000 cells into each well of a 6-well plate. Three wells received the BRD4 gRNA lentivirus, while the other three received the non-targeting gRNA lentivirus, at MOI 2.5. We followed the same transduction protocol described above. After 48 hours of incubation, puromycin was added to the medium at a final concentration of 2 μg/ml. After a further 48 hours, cells were passaged 1:1 into 10 cm dishes containing 10 mL of growth medium. […]

[7] = system: Advanced solid tumors or NHL; settings: cited from earlier work; for DLTs: G3, at 80 mg, 8 patients
[8] = nocodazole 40 ng/μl, RO-3306 4.5 μM

For O=C1NC(=NCc2cccs2)S/C1=C\c1ccc2ncccc2c1 [RO-3306], the G2 arrest (K562 cells [1]; [8]) was “significant G2 arrest”.

For Cc1ccc(NC(=O)c2ccc(CN3CCN(C)CC3)cc2)cc1Nc1nccc(-c2cccnc2)n1 [imatinib], the “apoptosis of CD24low versus CD24high K562 cells when exposed to imatinib” value (K562 cells [2]) is listed as “more apoptosis”.

For COc1ccc(CNc2nc(N(CCO)CCO)nc3c2ncn3C(C)C)cc1 [CVT-313], the “cells in G1 phase / G1 arrest” value (K562 cells [1]) was “significant increase”.

In the case of CC[C@H](C)C(=O)O[C@H]1C[C@@H](C)C=C2C=C[C@H](C)[C@H](CC[C@@H]3C[C@@H](O)CC(=O)O3)[C@H]21 [lovastatin], the “cells in G1 phase / G1 arrest” value (K562 cells [1]) is reported as “significant decrease”.

In the case of Cc1sc2c(c1C)C(c1ccc(Cl)cc1)=N[C@@H](CC(=O)Nc1ccc(O)cc1)c1nnc(C)n1-2 [MK-8628/OTX015], the DLTs ([3]; G3) is listed as “hyponatremia”, the DLTs ([3]; G4, neutropenia) is listed as “neutropenia,” and the DLTs ([3]; G4, thrombocytopenia) is listed as “thrombocytopenia, G4”. For the same compound, the “Responses observed: OR (DLBCL)” value ([3]; number of patients of 45) was 3 OR, the “Responses observed: with improvement of pleural effusion” value ([3]; number of patients of 45) was “(DLBCL), 1” and the “Responses observed: with resolution of B symptoms” value ([3]; number of patients of 45) was “effusion; 2”. For the same compound, the “Responses observed: with responses not meeting PR criteria” value ([3]; number of patients of 45) was 2 with, the RP2D ([3]; q.d.s. × 14/21 days, 45 patients) was 80 mg and the anemia ([3]; toxicity incidence) was “(91%)”. For the same compound, the diarrhea ([3]; toxicity incidence) was “(47%),”, the dysgeusia ([3]; toxicity incidence) was “(15%),” and the fatigue ([3]; toxicity incidence) was “(27%),”. The “Responses observed: CR” value ([4]; number of patients of 36) was 1 CR; 1 CRi, the “Responses observed: CRi (platelets)” value ([4]; number of patients of 36) was 1 CR; 1 CRi and the “Responses observed: with disappearance of hypertrophied gums” value ([4]; number of patients of 36) was “clearance, 1”. For the same compound, the MTD ([4]; q.d.s., 36 patients) was 120 mg, the abdominal pain ([4]; toxicity incidence) was “pain (11%),” and the “decreased factor VII” value ([4]; toxicity incidence) was “(21%)”. The dysgeusia ([4]; toxicity incidence) was “(11%),”, the toxicities of interest (NMC; G2, dysgeusia) was “dysgeusia,” and the toxicities of interest (NMC; G2, fatigue) was “G2 fatigue”. The toxicities of interest (NMC; G2, hyperglycemia) was “hyperglycemia,”, the toxicities of interest (NMC; G2, nausea) was “G2 nausea, G2” and the toxicities of interest (NMC; G3) was “thrombocytopenia,”. For the same compound, the “Responses observed: PR” value (NMC; number of patients of 4) was 2, the “Responses observed: SD” value (NMC; number of patients of 4) was 1 and the “Responses observed: PR” value (NMC, CRPC, NSCLC; number of patients of 47) was 4. The “Responses observed: SD” value (NMC, CRPC, NSCLC; number of patients of 47, for 4-8 months) was 5, the G3-4 thrombocytopenia (NMC, CRPC, NSCLC; toxicity incidence) was “(20%), G3” and the G3 anemia (NMC, CRPC, NSCLC; toxicity incidence) was “(9%), G3”. The G3 fatigue (NMC, CRPC, NSCLC; toxicity incidence) was “fatigue (7%)”, the DLTs (Acute leukemia, MDS; diarrhea) was “diarrhea, G3” and the DLTs (Acute leukemia, MDS; fatigue) was “fatigue”. The diarrhea (Acute leukemia, MDS; limited compliance) was “(34%),”, the rash (Acute leukemia, MDS; limited compliance) was “rash (20%)” and the “Responses observed: CR” value (Acute leukemia, MDS; number of patients of 41) was 2. For the same compound, the “Responses observed: CRi (platelets) × 2 months” value (Acute leukemia, MDS; number of patients of 41) was 1 and the RP2D (Acute leukemia, MDS; q.d.s. × 14/21 days, 41 patients) was 80 mg.

For CCNC(=O)C[C@@H]1N=C(c2ccc(Cl)cc2)c2cc(OC)ccc2-n2c(C)nnc21 [GSK525762], the “Responses observed: PR in NMC patients” value ([5]; 17 with NMC) is given as 2, the “Responses observed: SD in NMC patients” value ([5]; 17 with NMC) is given as 4 and the RP2D ([5]; daily, 70 patients) is given as 80 mg.

For Cc1noc2c1-c1ccccc1C(c1ccc(Cl)cc1)=N[C@H]2CC(N)=O [CPI-0610], the primary toxicity ([6]; dose dependent, reversible) is listed as “thrombocytopenia;”, the “Responses observed: CR” value ([6]; number of patients of 44) is listed as 2 and the “Responses observed: PR” value ([6]; number of patients of 44) is listed as 1. For the same compound, the “Responses observed: SD” value ([6]; number of patients of 44) was “PR; 6 SD”, the “Responses observed: with responses not qualifying as PR” value ([6]; number of patients of 44) was 5 with and the “patients with G3 diarrhea” value ([6]; of 44 patients) was 1 patient with. For the same compound, the “patients with G4 thrombocytopenia” value ([6]; of 44 patients) was 1 patient with.

For COC(=O)Nc1nc2ccc(C(=O)c3cccs3)cc2[nH]1 [nocodazole], the G2 arrest (K562 cells [1]; [8]) was “significant G2 arrest” and the “surviving cells after five days of treatment” value (K562 cells [1]; K562, nocodazole 40 ng/μl, RO-3306 4.5 μM) was “very few surviving cells”.

In the case of “BRD4 gRNA: guide RNA GCGGCTGCCGGCGGTGCCCG for knockdown of BRD4 with CRISPRi (dCas9-KRAB) (listed as DNA, chemistry not given here)”, the “sensitization of K562 cells to imatinib” value (BRD4; imatinib 1 μM, Tukey's HSD p=0.68 (FIG. 14E-14F)) is reported as “partially phenocopied”, the “proportion of CD24high cells compared to non-targeting (NT) gRNA” value (BRD4; nine days after gRNA transduction, Welch's t test p<0.01 (FIG. 6E), not to the same levels as JQ1) is reported as “significant decrease” and the “reduction of BRD4 mRNA levels” value (BRD4; qRT-PCR (FIG. 14D)) is reported as “less than 50%”.

For CNC(=O)N1N=C(c2ccc(N3CCN(C)CC3)cc2)c2cc(OC)c(OC)cc2C[C@@H]1C [BAY1238097], the “Development (as DLTs occurred at subtherapeutic doses of drug)” value ([7]; 5-40 mg 2×/week in 21 day cycle) is given as “halted as”, the “Recurrent headaches, patients” value ([7]; 10 and 40 mg cohorts) is given as “in 50%” and the DLTs ([7]; headache) is given as “headache,”. The DLTs ([7]; low back pain) was “G3 low back” and the DLTs ([7]; vomiting) was “G3 vomiting,”.
